Results published in the NIST ThermoML archive (doi:10.1007/s10765-005-8592-5).
Values joined by “and” are separate entries in the source; they are usually repeats but may differ in a detail not shown here. Equal values may be shown once. Numbers after ± are expanded uncertainties.

Assay: molar heat capacity at constant volume
Conditions: Fluid (supercritical or subcritical phases), Vacuum adiabatic calorimetry

CC(C)C [2-methylpropane]
Conditions	molar heat capacity at constant volume
415.15 K, 4254 kPa	222.08 ± 9 J/K/mol and 230.8 ± 9.3 J/K/mol
420.15 K, 4664 kPa	202.67 ± 8.1 J/K/mol
420.15 K, 4665 kPa	202.96 ± 8.1 J/K/mol
425.15 K, 5082 kPa	186.05 ± 8 J/K/mol
425.15 K, 5083 kPa	187.1 ± 8.4 J/K/mol

CCC [propane]
Conditions	molar heat capacity at constant volume [J/K/mol]
270.15 K, 4427 kPa	71.74 ± 2.9
275.15 K, 7953 kPa	71.26 ± 2.9
280.15 K, 11458 kPa	71.3 ± 2.9
285.15 K, 14939 kPa	72.63 ± 2.9
290.15 K, 18398 kPa	73.46 ± 3
295.15 K, 21836 kPa	74.57 ± 3
300.15 K, 25251 kPa	74.61 ± 3
305.15 K, 28640 kPa	74.35 ± 3
310.15 K, 6561 kPa	74.57 ± 3
315.15 K, 9049 kPa	75.23 ± 3
320.15 K, 11532 kPa	76.15 ± 3
325.15 K, 3660 kPa	77.96 ± 3.1
325.15 K, 14008 kPa	76.37 ± 3
330.15 K, 5594 kPa	78.75 ± 3.2
330.15 K, 16475 kPa	76.64 ± 3.1
335.15 K, 7530 kPa	78.31 ± 3.1
335.15 K, 18934 kPa	76.9 ± 3.1
340.15 K, 9468 kPa	77.7 ± 3.1
340.15 K, 21386 kPa	77.21 ± 3.1
345.15 K, 11404 kPa	77.26 ± 3.1
345.15 K, 23827 kPa	76.33 ± 3
350.15 K, 13339 kPa	79.46 ± 3.2
350.15 K, 26253 kPa	77.52 ± 3.1
355.15 K, 15273 kPa	77.39 ± 3.1
355.15 K, 28668 kPa	77.43 ± 3.1
360.15 K, 17203 kPa	77.74 ± 3.1
365.15 K, 19126 kPa	78.62 ± 3.1
370.15 K, 21044 kPa	79.15 ± 3.2
375.15 K, 5095 kPa	98.6 ± 4
380.15 K, 5744 kPa	93.04 ± 3.7
385.15 K, 6404 kPa	89.6 ± 3.6
390.15 K, 7072 kPa	86.07 ± 3.4
395.15 K, 7746 kPa	84.84 ± 3.4
400.15 K, 8425 kPa	80.43 ± 5.6
405.15 K, 9109 kPa	78.84 ± 3.2
410.15 K, 9795 kPa	79.99 ± 3.2
420.15 K, 11176 kPa	79.81 ± 3.2
425.15 K, 11869 kPa	81.75 ± 3.3
